Results published in patent US10501421B1, “Substituted benzimidazoles as modulators of Ras signaling” (VANDERBILT UNIVERSITY, priority 2017, dated 2019).
Where a name gives a salt, the structure may show the parent alone. Read-outs that look alike come from different tables or passages of the source.

Experiments:
[1] = biological target: Ras GEF SOS (Son of Sevenless) (Homo sapiens, UniProt Q07889); experiment: SOS-mediated nucleotide exchange on Ras (BODIPY-GDP fluorescence); type: biochemical; settings: SOS-mediated exchange of BODIPY-GDP for GTP on Ras
Summary of the method: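 Exchange rates were taken from single-exponential fits of the fluorescence time course as BODIPY-GDP on Ras was replaced by GTP. Compound went in first, then GTP and SOS. Mean rates plotted against concentration gave EC50 by four-parameter dose-response fitting.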

Son of Sevenless (SOS) = biological target: T1, Son of Sevenless (SOS) (Homo sapiens, UniProt Q07889); experiment: Binding to SOS, fluorescence polarization anisotropy (FPA) probe displacement; settings: displacement of FITC-conjugated probe (Example 285), affinity calculated from IC50
T1 sequence (Q07889 564-1049 limits assumed): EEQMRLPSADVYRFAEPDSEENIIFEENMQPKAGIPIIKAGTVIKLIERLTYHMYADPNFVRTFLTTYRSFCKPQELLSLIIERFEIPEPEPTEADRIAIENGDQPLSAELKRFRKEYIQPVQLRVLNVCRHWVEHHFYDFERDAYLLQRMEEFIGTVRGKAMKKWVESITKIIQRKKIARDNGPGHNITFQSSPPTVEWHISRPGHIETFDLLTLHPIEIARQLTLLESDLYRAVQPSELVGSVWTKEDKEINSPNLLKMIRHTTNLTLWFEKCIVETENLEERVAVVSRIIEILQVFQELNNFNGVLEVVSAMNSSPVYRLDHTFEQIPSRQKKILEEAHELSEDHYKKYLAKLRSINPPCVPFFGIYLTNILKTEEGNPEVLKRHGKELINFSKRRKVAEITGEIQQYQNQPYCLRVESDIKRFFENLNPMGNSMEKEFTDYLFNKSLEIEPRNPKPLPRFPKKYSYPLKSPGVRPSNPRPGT
Summary of the method: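 Test compounds were titrated against SOS pre-bound to a fluorescein-labelled probe, with anisotropy plotted versus compound concentration. Binding affinities were derived from IC50 values obtained by four-parameter dose-response fitting.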

[2] = test system: H727 lung cancer cell lines (G12V K-Ras mutation); experiment: Inhibition of cancer cell proliferation (CellTiter-Glo); type: cell-based; settings: Homo sapiens, NCI-H727, 72 h, read-out: Cell proliferation activity (H727 cancer cell line proliferation IC50)
Method: Compounds of the present invention were measured for their ability to kill H727 lung cancer cell lines, which contain a G12V K-Ras mutation. Cell proliferation experiments were conducted in 96-well plates. Cells were plated at 1000 cells/well, incubated overnight, followed by treatment with a dose range of compound for 3 days at 37° C. Cell proliferation was assessed using a CellTiter-Glo assay (Promega) according to the manufacturer's protocol. Data were normalized to DMSO control. IC50 values were determined using a four-parameter dose-response (variable slope) equation. These assays are performed in a manner analogous to the assay disclosed in: Burns, M. C.; Sun, Q.; Daniels, R. N.; Camper, D. V.; Kennedy, J. P.; Phan, J.; Olejniczak, E. O.; Lee, T.; Waterson, A. G.; Rossanese, O. W.; Fesik, S. W. “Approach for targeting Ras with small molecules that activate SOS-mediated nucleotide exchange” Proc. Natl. Acad. Sci. 2014; 11(9): 3401-3406. PMCID: PMC3948241.

[3] = H727 cells, 3 days treatment, CellTiter-Glo

Sequence of Ras GEF SOS (Son of Sevenless) (P01112 1-166 partner limits assumed, one chain of several): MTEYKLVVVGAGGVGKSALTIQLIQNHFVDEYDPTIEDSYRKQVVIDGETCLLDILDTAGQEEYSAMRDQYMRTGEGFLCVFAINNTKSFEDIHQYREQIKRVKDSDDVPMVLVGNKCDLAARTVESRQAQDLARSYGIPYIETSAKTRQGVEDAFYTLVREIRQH

SMILES | EC50 [1] | Ki (Son of Sevenless (SOS)) | IC50 [2] | IC50 [2, 3]
Cc1cc(-c2ccccc2Cl)c2nc(N3CCNCC3)n(Cc3ccc(F)c(Cl)c3)c2c1 [Example 118, 1-(3-chloro-4-fluorobenzyl)-4-(2-chlorophenyl)-6-methyl-2-(piperazin-1-yl)-1H-benzo[d]imidazole trifluoroacetate] | 1 to 5 µM | < 0.5 µM | 1 to 5 µM | –
Cc1cc(-c2ccccc2F)c2nc(N3CCNCC3)n(Cc3ccc(F)c(Cl)c3)c2c1 [Example 119, 1-(3-chloro-4-fluorobenzyl)-4-(2-fluorophenyl)-6-methyl-2-(piperazin-1-yl)-1H-benzo[d]imidazole trifluoroacetate] | 1 to 5 µM | < 0.5 µM | > 20 µM | –
Cc1cc(-c2ccccc2C)c2nc(N3CCNCC3)n(Cc3ccc(F)c(Cl)c3)c2c1 [Example 120, 1-(3-chloro-4-fluorobenzyl)-6-methyl-2-(piperazin-1-yl)-4-(o-tolyl)-1H-benzo[d]imidazole trifluoroacetate] | 1 to 5 µM | < 0.5 µM | 1 to 5 µM | –
Cc1cc(CN2CCCC2)c2nc(N3CCNCC3)n(Cc3cc(C)c(F)c(C)c3)c2c1 [Example 124, 1-(4-fluoro-3,5-dimethylbenzyl)-6-methyl-2-(piperazin-1-yl)-4-(pyrrolidin-1-ylmethyl)-1H-benzo[d]imidazole trifluoroacetate] | < 1 µM | 1 to 5 µM | 1 to 5 µM | –
Cc1cc(CN2CCCCC2)c2nc(N3CCNCC3)n(Cc3cc(C)c(F)c(C)c3)c2c1 [Example 125, 1-(4-fluoro-3,5-dimethylbenzyl)-6-methyl-2-(piperazin-1-yl)-4-(piperidin-1-ylmethyl)-1H-benzo[d]imidazole trifluoroacetate] | 1 to 5 µM | 1 to 5 µM | 1 to 5 µM | –
Cc1cc(CN2CCC(O)CC2)c2nc(N3CCNCC3)n(Cc3cc(C)c(F)c(C)c3)c2c1 [Example 126, 1-((1-(4-fluoro-3,5-dimethylbenzyl)-6-methyl-2-(piperazin-1-yl)-1H-benzo[d]imidazol-4-yl)methyl)piperidin-4-ol trifluoroacetate] | 1 to 5 µM | 1 to 5 µM | 1 to 5 µM | –
Cc1cc(CN2CCOCC2)c2nc(N3CCNCC3)n(Cc3cc(C)c(F)c(C)c3)c2c1 [Example 127, 4-((1-(4-fluoro-3,5-dimethylbenzyl)-6-methyl-2-(piperazin-1-yl)-1H-benzo[d]imidazol-4-yl)methyl)morpholine trifluoroacetate] | 1 to 5 µM | 1 to 5 µM | 1 to 5 µM | –
Cc1cc(CN(C)C)c2nc(N3CCNCC3)n(Cc3cc(C)c(F)c(C)c3)c2c1 [Example 128, 1-(1-(4-fluoro-3,5-dimethylbenzyl)-6-methyl-2-(piperazin-1-yl)-1H-benzo[d]imidazol-4-yl)-N,N-dimethylmethanamine trifluoroacetate] | < 1 µM | 0.5 to 1 µM | 1 to 5 µM | –
CNCc1cc(Cl)cc2c1nc(N1CCNCC1)n2Cc1cc(C)c(F)c(C)c1 [Example 129, 1-(6-chloro-1-(4-fluoro-3,5-dimethylbenzyl)-2-(piperazin-1-yl)-1H-benzo[d]imidazol-4-yl)-N-methylmethanamine trifluoroacetate] | < 1 µM | < 0.5 µM | 1 to 5 µM | –
Cc1cc(Cn2c(N3CCNCC3)nc3c(CN4CCCC4)cc(Cl)cc32)cc(C)c1F [Example 130, 6-chloro-1-(4-fluoro-3,5-dimethylbenzyl)-2-(piperazin-1-yl)-4-(pyrrolidin-1-ylmethyl)-1H-benzo[d]imidazole trifluoroacetate] | < 1 µM | < 0.5 µM | 1 to 5 µM | –
CCCNCc1c(C)c(C)cc2c1nc(N1CCNCC1)n2Cc1cc(C)c(F)c(C)c1 [Example 132, N-((1-(4-fluoro-3,5-dimethylbenzyl)-5,6-dimethyl-2-(piperazin-1-yl)-1H-benzo[d]imidazol-4-yl)methyl)propan-1-amine trifluoroacetate] | < 1 µM | 1 to 5 µM | 1 to 5 µM | –
Cc1cc(C2NCCc3c2[nH]c2ccccc32)c2nc(N3CCNCC3)n(Cc3cc(C)c(F)c(C)c3)c2c1 (stereo not drawn) [Example 139, 1-(1-(4-fluoro-3,5-dimethylbenzyl)-6-methyl-2-(piperazin-1-yl)-1H-benzo[d]imidazol-4-yl)-2,3,4,9-tetrahydro-1H-pyrido[3,4-b]indole trifluoroacetate] | 1 to 5 µM | 1 to 5 µM | 1 to 5 µM | –
C=C[C@H](N)c1cc(Cl)cc2c1nc(NCCN)n2Cc1cc(C)c(F)c(C)c1 [Example 156, (S)—N^1-(4-(1-aminoallyl)-6-chloro-1-(4-fluoro-3,5-dimethylbenzyl)-1H-benzo[d]imidazol-2-yl)ethane-1,2-diamine trifluoroacetate] | < 1 µM | < 0.5 µM | 1 to 5 µM | –
Cc1cc(Cn2c(N3CCNCC3)nc3c([C@@H](N)c4ccccc4)cc(Cl)cc32)cc(C)c1F [Example 159, (S)-(6-chloro-1-(4-fluoro-3,5-dimethylbenzyl)-2-(piperazin-1-yl)-1H-benzo[d]imidazol-4-yl)(phenyl)methanamine trifluoroacetate] | < 1 µM | < 0.5 µM | < 1 µM | –
CC[C@H](N)c1cc(C)cc2c1nc(N1CCNCC1)n2Cc1cc(C)c(F)c(C)c1 [Example 161, (S)-1-(1-(4-fluoro-3,5-dimethylbenzyl)-6-methyl-2-(piperazin-1-yl)-1H-benzo[d]imidazol-4-yl)propan-1-amine trifluoroacetate] | < 1 µM | 0.5 to 1 µM | 1 to 5 µM | –
C=C[C@H](N)c1cc(C)cc2c1nc(N1CCNCC1)n2Cc1cc(C)c(F)c(C)c1 [Example 162, (S)-1-(1-(4-fluoro-3,5-dimethylbenzyl)-6-methyl-2-(piperazin-1-yl)-1H-benzo[d]imidazol-4-yl)prop-2-en-1-amine trifluoroacetate] | 1 to 5 µM | 1 to 5 µM | 1 to 5 µM | –
CCC[C@H](N)c1cc(Cl)cc2c1nc(N1CCNCC1)n2Cc1cc(C)c(F)c(C)c1 [Example 164, (S)-1-(6-chloro-1-(4-fluoro-3,5-dimethylbenzyl)-2-(piperazin-1-yl)-1H-benzo[d]imidazol-4-yl)butan-1-amine trifluoroacetate] | 1 to 5 µM | < 0.5 µM | < 1 µM | –
Fc1ccc(Cn2c(N3CCNCC3)nc3c(-c4ccnn4-c4ccc(Br)cc4)cc(Cl)cc32)cc1Cl [Example 170, 4-(1-(4-bromophenyl)-1H-pyrazol-5-yl)-6-chloro-1-(3-chloro-4-fluorobenzyl)-2-(piperazin-1-yl)-1H-benzo[d]imidazole trifluoroacetate] | 1 to 5 µM | < 0.5 µM | 5 to 20 µM | –
Cc1cnc2nc(N3CCCC(N)C3)n(Cc3ccc(F)c(C)c3)c2c1 (stereo not drawn) [Example 240, 1-(1-(4-fluoro-3-methylbenzyl)-6-methyl-1H-imidazo[4,5-b]pyridin-2-yl)piperidin-3-amine] | 1 to 5 µM | > 5 µM | – | 5 to 20 µM
Cc1cnc2nc(N3CCC(N)C3)n(Cc3ccc(F)c(C)c3)c2c1 (stereo not drawn) [Example 241, 1-(1-(4-fluoro-3-methylbenzyl)-6-methyl-1H-imidazo[4,5-b]pyridin-2-yl)pyrrolidin-3-amine] | 1 to 5 µM | > 5 µM | – | > 20 µM
Cc1cnc2nc(N3CC(CN)C3)n(Cc3ccc(F)c(C)c3)c2c1 [Example 248, (1-(1-(4-fluoro-3-methylbenzyl)-6-methyl-1H-imidazo[4,5-b]pyridin-2-yl)azetidin-3-yl)methanamine] | < 1 µM | 0.5 to 1 µM | – | 5 to 20 µM
Cc1cc(Cn2c(N3CC(CN)C3)nc3ccc(OC(C)C(F)(F)F)nc32)ccc1F (stereo not drawn) [Example 259, (1-(3-(4-fluoro-3-methylbenzyl)-5-((1,1,1-trifluorpropan-2-yl)oxy)-3H-imidazo[4,5-b]pyridin-2-yl)azetidin-3-yl)methanamine] | 5 to 30 µM | > 5 µM | – | < 1 µM
